Data set [1] has as its system AAUU (RNA, hairpin) AAUUAAUUAAUUGAAAAAUUAAUUAAUU
Description: fluorescence titration, sigmoidal fit. The conditions noted are these: 185 mM NaCl, 8 mM Na2HPO4, pH 7.0, 0.1 mM EDTA, RNA titrated.

For data set [2], the system named is AUAU (RNA, hairpin) AUAUAUAUAUAUGAAAAUAUAUAUAUAU
Description: fluorescence titration, sigmoidal fit. To be noted: 185 mM NaCl, 8 mM Na2HPO4, pH 7.0, 0.1 mM EDTA, RNA titrated.

Data set [3] concerns GGCC (RNA, hairpin) GGCCGGCCGAAAGGCCGGCC
Description: fluorescence titration, sigmoidal fit. To be noted: 185 mM NaCl, 8 mM Na2HPO4, pH 7.0, 0.1 mM EDTA, RNA titrated.

The subject of data set [4] is GCGC (RNA, hairpin) GCGCGCGCGAAAGCGCGCGC
Nature of the data set: fluorescence titration, sigmoidal fit. To be noted: 185 mM NaCl, 8 mM Na2HPO4, pH 7.0, 0.1 mM EDTA, RNA titrated.

Data set [5] deals with r(AUUCU)11 (RNA, repeat) AUUCUAUUCUAUUCUAUUCUAUUCUAUUCUAUUCUAUUCUAUUCUAUUCUAUUCU
Description: fluorescence titration, sigmoidal fit. The conditions noted are these: 185 mM NaCl, 8 mM Na2HPO4, pH 7.0, 0.1 mM EDTA.

Data set [6] has as its system r(CUG)12 (RNA, repeat) CUGCUGCUGCUGCUGCUGCUGCUGCUGCUGCUGCUG
Nature of the data set: fluorescence titration, sigmoidal fit. The conditions noted are these: 185 mM NaCl; 8 mM Na2HPO4, pH 7.0, 0.1 mM EDTA; range over four repeats 36–87 nM.

In data set [7] the test system is r(CGG)12 (RNA, repeat) CGGCGGCGGCGGCGGCGGCGGCGGCGGCGGCGGCGG
Nature of the data set: fluorescence titration, sigmoidal fit. To be noted: 185 mM NaCl; 8 mM Na2HPO4, pH 7.0, 0.1 mM EDTA; range over four repeats 36–87 nM.

Data set [8] relates to r(CCUG)12 (RNA, repeat) CCUGCCUGCCUGCCUGCCUGCCUGCCUGCCUGCCUGCCUGCCUGCCUG
Description: fluorescence titration, sigmoidal fit. To be noted: 185 mM NaCl; 8 mM Na2HPO4, pH 7.0, 0.1 mM EDTA; range over four repeats 36–87 nM.

Data set [9] relates to r(AUUCU)11, 5'-32P labelled (RNA, repeat) AUUCUAUUCUAUUCUAUUCUAUUCUAUUCUAUUCUAUUCUAUUCUAUUCUAUUCU
Nature of the data set: RNase V1 protection. The conditions noted are these: 1× RNA Structure Buffer; compound 0-20 μM; protects each AU pair.

Data set [10] concerns AAUU (RNA, hairpin) AAUUAAUUAAUUGAAAAAUUAAUUAAUU
Description: fluorescence titration, lattice (Scatchard-type) fit. To be noted: 185 mM NaCl; 8 mM Na2HPO4, pH 7.0, 0.1 mM EDTA; microscopic Kd; per site.

For data set [11], the system named is AUAU (RNA, hairpin) AUAUAUAUAUAUGAAAAUAUAUAUAUAU
The data set is described as above. To be noted: 185 mM NaCl; 8 mM Na2HPO4, pH 7.0, 0.1 mM EDTA; microscopic Kd; per site.

The subject of data set [12] is r(AUUCU)11 (RNA, repeat) AUUCUAUUCUAUUCUAUUCUAUUCUAUUCUAUUCUAUUCUAUUCUAUUCUAUUCU
Described as above. To be noted: 185 mM NaCl, 8 mM Na2HPO4, pH 7.0, 0.1 mM EDTA, microscopic Kd, per site.

In data set [13] the test system is r(AUUCU)11 for TR-FRET (RNA, repeat) AUUCUAUUCUAUUCUAUUCUAUUCUAUUCUAUUCUAUUCUAUUCUAUUCUAUUCU
Nature of the data set: TR-FRET, inhibition of RNA-protein complex. To be noted: 110 mM KCl, 110 mM NaCl, 2 mM MgCl2, 2 mM CaCl2, 20 mM HEPES pH 7.5, DGCR8Δ 40 nM displaced, RNA 60 nM.

Data set [14] deals with T1, DGCR8Δ (UniProt Q8WYQ5).
T1 sequence: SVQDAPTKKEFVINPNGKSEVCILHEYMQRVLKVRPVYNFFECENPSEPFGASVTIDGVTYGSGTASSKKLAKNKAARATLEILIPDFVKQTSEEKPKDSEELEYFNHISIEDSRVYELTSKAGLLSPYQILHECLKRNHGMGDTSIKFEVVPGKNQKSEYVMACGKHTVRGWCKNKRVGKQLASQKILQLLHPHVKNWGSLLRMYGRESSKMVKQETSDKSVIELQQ
Description: EMSA. The conditions noted are these: 2 mM Mg2+, 2 mM Ca2+; EMSA: 20 mM HEPES pH 7.5, 110 mM KCl, 110 mM NaCl, 0.1% BSA, 2 mM MgCl2, 2 mM CaCl2, 0.05% Tween-20, 5 mM DTT, 15 min, room temperature; native 5% PAGE. In general terms: In EMSA bound probe runs differently from free probe, usually more slowly.

For data set [15], the system named is r(AUUCU)11, 5'-32P labelled (RNA, repeat) AUUCUAUUCUAUUCUAUUCUAUUCUAUUCUAUUCUAUUCUAUUCUAUUCUAUUCU
Nature of the data set: filter binding (dot blot). The conditions noted are these: PBS, 1 mM MgCl2; pH 7.4; 50 μg/ml BSA; RNA 100 nM, compound 1 μM.

Consider `N=C(N)c1ccc(-c2ccc(-c3ccccc3)o2)cc1`, for which the EC50 in data set [1] (3 μM compound, Hill 3.1±0.79) stood at 0.17 ± 0.01 µM; in [2] (3 μM compound, Hill 1.5±0.32), 0.045 ± 0.001 µM; in [3] (3 μM compound, Hill 1.4±0.34) it was 390 ± 20 nM; in data set [4] (3 μM compound, Hill 0.92±0.34), 240 ± 10 nM. Also, the binding result in [5] (range over four repeats 36–87 nM), in data set [6], in [7] and in data set [8] was “yes” throughout.
On to `N=C(N)c1ccc(-c2ccc(-c3ccc(C(=N)N)cc3)o2)cc1`, for which the binding entry in data set [9] is “yes”. The EC50 in data set [1] (1 μM compound, Hill 1.5±0.24) is 0.17 ± 0.04 µM; in [2] (1 μM compound, Hill 1.6±0.28) it was 0.19 ± 0.02 µM; in data set [3] (1 μM compound, Hill 0.85±0.08) it was 8,550±250 nM; in data set [4] (1 μM compound, Hill 0.77±0.16), 6,950±250 nM. Further, the values for the Kd in [10], in [11] and in data set [12] (Hill 1.7±0.2) were 0.32 µM, 0.21 µM and 0.3 ± 0.047 µM, respectively.
Turning to `[N-]=[N+]=NCCCNC(=N)c1ccc(-c2ccc(-c3ccc(C(=N)N)cc3)o2)cc1`, the EC50 in data set [1] (1 μM compound, Hill 1.0±0.17) was 0.045 ± 0.006 µM; in [2] (1 μM compound, Hill 1.0±0.13), 0.031 ± 0.004 µM; in [3] (1 μM compound) it was > 6,000 nM; in data set [4] (1 μM compound) it was > 2,000 nM. Besides, the binding result in data set [13] (~25% inhibition at 1.5 μM) is recorded as “yes”. The molecule also gave a Kd in data set [12] (Hill 1.3±0.1) of 0.375 ± 0.034 µM.
In turn, “AUUCUAUUCUAUUCUAUUCUAUUCUAUUCUAUUCUAUUCUAUUCUAUUCUAUUCU [r(AUUCU)11]” returned a Kd in [14] of 1.6 µM.
For the molecule `CCCN(CC(=O)N(CCC)CC(=O)N(CC(N)=O)Cc1cn(CCCNC(=N)c2ccc(-c3ccc(-c4ccc(C(=N)N)cc4)o3)cc2)nn1)C(=O)CNCc1cn(CCCNC(=N)c2ccc(-c3ccc(-c4ccc(C(=N)N)cc4)o3)cc2)nn1`, the binding entry in [15] and in [13] (~70% inhibition at 1.5 μM) was “yes” each time. In data set [5] (without PEG 8000), this molecule yielded an EC50 of 0.146 ± 0.008 µM. This molecule returned a Kd in data set [12] (Hill 1.4±0.4) of 0.185 ± 0.001 µM.

By EC50 is commonly meant the concentration giving half of the maximal effect. Lower therefore signals a more potent agent. A word on the Kd: it is the equilibrium constant for the complex coming apart.

These data come from publication PMC4895354 (2016).
